Here are results for eleven compounds from ChEMBL document CHEMBL5518245, “Development of an Imidazopyridazine-Based MNK1/2 Inhibitor for the Treatment of Lymphoma” (J Med Chem, 2024).

Usually half-life stands for the time needed for the level to fall by half in the phase considered. A lower half-life goes with fast loss. In general, IC50 refers to the concentration that inhibits the measured activity by half.

Structures are written as SMILES.

Series [1] can be described thus: in vitro. The following applies: dog, liver microsomes. Background: Liver microsomes are a subcellular fraction often used to study metabolism.
A short description of series [2]: in vitro. The note with it: human, liver microsomes.
Series [3] can be described thus: in vitro. The note with it: rat, liver microsomes.
For series [4], the target named is Voltage-gated inwardly rectifying potassium channel KCNH2 (Homo sapiens, UniProt Q12809).
Chain of Voltage-gated inwardly rectifying potassium channel KCNH2 (Q12809 whole entry): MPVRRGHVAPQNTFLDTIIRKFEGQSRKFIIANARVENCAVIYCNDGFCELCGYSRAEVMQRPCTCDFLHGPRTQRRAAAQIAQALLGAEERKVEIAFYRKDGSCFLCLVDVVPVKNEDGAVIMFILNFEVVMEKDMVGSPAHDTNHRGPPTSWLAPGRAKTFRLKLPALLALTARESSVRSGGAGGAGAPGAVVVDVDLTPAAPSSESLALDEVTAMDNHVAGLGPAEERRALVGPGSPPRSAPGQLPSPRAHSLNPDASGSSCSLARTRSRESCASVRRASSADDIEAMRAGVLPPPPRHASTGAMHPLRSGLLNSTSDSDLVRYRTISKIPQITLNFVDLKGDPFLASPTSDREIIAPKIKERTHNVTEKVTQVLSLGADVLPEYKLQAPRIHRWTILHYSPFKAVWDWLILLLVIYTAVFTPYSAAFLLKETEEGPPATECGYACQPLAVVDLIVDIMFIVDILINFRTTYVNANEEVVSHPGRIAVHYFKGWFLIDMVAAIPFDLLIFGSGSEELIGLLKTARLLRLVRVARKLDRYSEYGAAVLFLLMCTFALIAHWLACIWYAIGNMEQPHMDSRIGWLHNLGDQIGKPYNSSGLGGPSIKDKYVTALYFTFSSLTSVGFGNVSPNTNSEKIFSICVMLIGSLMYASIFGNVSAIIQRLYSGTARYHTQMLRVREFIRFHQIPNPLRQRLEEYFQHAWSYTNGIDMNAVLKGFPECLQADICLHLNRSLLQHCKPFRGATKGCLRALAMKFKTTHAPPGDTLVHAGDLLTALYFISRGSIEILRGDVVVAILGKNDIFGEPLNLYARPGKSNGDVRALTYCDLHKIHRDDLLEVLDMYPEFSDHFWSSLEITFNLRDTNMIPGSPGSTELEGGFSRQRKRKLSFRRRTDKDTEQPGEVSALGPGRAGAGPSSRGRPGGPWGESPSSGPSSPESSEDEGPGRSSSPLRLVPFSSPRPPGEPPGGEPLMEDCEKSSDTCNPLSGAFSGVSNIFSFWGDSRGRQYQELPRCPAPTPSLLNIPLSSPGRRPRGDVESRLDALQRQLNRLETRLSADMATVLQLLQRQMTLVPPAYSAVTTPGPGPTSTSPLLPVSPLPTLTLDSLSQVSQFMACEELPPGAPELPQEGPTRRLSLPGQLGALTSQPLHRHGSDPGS
Series [5] deals with TMD8. Nature of the series: Antitumor activity against human TMD8 cells xenografted in mouse assessed as tumor growth inhibition at 10 mg/kg, po. Type of series: functional. The note with it: read-out: TGI. For orientation: In xenograft studies the graft and the host belong to different species.
In another series the test system is A549. The series is described as follows: cells. The following applies: Homo sapiens, A549, 72 h.
A further series concerns PC-3. The series is described as follows: cells. The following applies: Homo sapiens, PC-3, 72 h.
For another series, the system named is HT-29. The series is described as follows: cells. The following applies: Homo sapiens, HT-29, 72 h.
For the next series, the system named is DOHH-2. The series is described as follows: cells. The note with it: Homo sapiens, DOHH-2, 72 h.
In another series the test system is MDA-MB-231. The series is described as follows: cells. The note with it: Homo sapiens, MDA-MB-231, 72 h.
The test system of series [6] is TMD8. The series is described as follows: cells. The following applies: Homo sapiens, TMD8, 72 h.
In another series the test system is PANC-1. Nature of the series: cells. The following applies: Homo sapiens, PANC-1, 72 h.
A further series concerns LN-18. Nature of the series: Antiproliferative activity against human LN-18 cells assessed as inhibition of cell growth incubated for 72 hrs MTS assay. The format is functional, cell-based. The following applies: LN-18, 72 h. On the technique in general: Formazan colour is commonly taken as a measure of viable cells.

Regarding `N#Cc1ccc(-c2cnc3ccc(-c4ccc(C(=O)N5CCOCC5)cc4)cn23)cc1` [TINODASERTIB], the results for the half-life in the series “in vitro [1]”, in “in vitro [2]” and in “in vitro [3]” were 83.5 min, 67.1 min and 18.1 min, respectively.
Regarding `NC1CCN(C(=O)c2ccc(-c3ccc4ncc(-c5cc6ccccc6o5)n4n3)cc2)CC1`, in series [4], the midpoint of inhibition, the IC50, lay at 7.98 µM.
In series [4], `O=C(c1ccc(-c2ccc3ncc(-c4cc5ccccc5o4)n3n2)cc1)N1CCOCC1` yielded an IC50 greater than 30 µM.
Still for that read-out and setting: under `N[C@@H]1CCCN(C(=O)c2ccc(-c3ccc4ncc(-c5cc6ccccc6o5)n4c3)cc2)C1` stands 4.66 µM; under `N[C@@H]1CCCN(C(=O)c2ccc(-c3ccc4ncc(-c5cc6ccccc6o5)n4n3)cc2)C1`, 5.82 µM.
For `Cc1cc(Nc2cc(N)ncn2)c(=O)n2c1C(=O)NC21CCCCC1` [TOMIVOSERTIB], in the series on TMD8 [5], the inhibition in vivo at 10 mg/kg turned out to be 75%. Further, the concentration for half-maximal inhibition (IC50) in the series on A549 is greater than 50 µM; in the series on PC-3 it was 29.4 µM; in the series with HT-29, greater than 50 µM; in series [4], greater than 30 µM; in the series with DOHH-2, 6.3 µM; in the series with MDA-MB-231, 45 µM. For the same compound, the values for the IC50 with TMD8 [6], in the series on PANC-1 and in the series with LN-18 were greater than 50 µM, greater than 50 µM and 6.27 µM, respectively. In addition, the half-life in the series “in vitro [1]”, in the series “in vitro [2]” and in “in vitro [3]” was greater than 120 min in each case.
`O=C(c1ccc(-c2ccc3ncc(-c4cc5ccccc5o4)n3n2)cc1)N1CCC(N2CCCCC2)CC1` had an IC50 in series [4] greater than 30 µM.
The same measure, in the same setting: to `CN(C)C1CCN(C(=O)c2ccc(-c3ccc4ncc(-c5cc6ccccc6o5)n4c3)cc2)CC1` belongs 1.03 µM; to `CN(C)C1CCN(C(=O)c2ccc(-c3ccc4ncc(-c5cc6ccccc6o5)n4n3)cc2)CC1`, 2.97 µM; to `N[C@H]1CCCN(C(=O)c2ccc(-c3ccc4ncc(-c5cc6ccccc6o5)n4n3)cc2)C1`, greater than 30 µM.
In [4], `NC1CCN(C(=O)c2ccc(-c3ccc4ncc(-c5cc6ccccc6o5)n4c3)cc2)CC1` yielded a 50% inhibitory concentration (IC50) of 4.4 µM.
